These results are taken from ChEMBL document CHEMBL4024785 (J Med Chem, 2018).

As a reminder, the Ki is the dissociation constant of the complex between target and ligand, obtained from inhibition or displacement.

Among the targets are Carbonic anhydrase 1 (Homo sapiens, UniProt P00915); Carbonic anhydrase 9 (Homo sapiens, UniProt Q16790); Carbonic anhydrase 12 (Homo sapiens, UniProt O43570).

Molecules are shown by their SMILES.

Carbonic anhydrase 12, sequence (O43570 whole entry): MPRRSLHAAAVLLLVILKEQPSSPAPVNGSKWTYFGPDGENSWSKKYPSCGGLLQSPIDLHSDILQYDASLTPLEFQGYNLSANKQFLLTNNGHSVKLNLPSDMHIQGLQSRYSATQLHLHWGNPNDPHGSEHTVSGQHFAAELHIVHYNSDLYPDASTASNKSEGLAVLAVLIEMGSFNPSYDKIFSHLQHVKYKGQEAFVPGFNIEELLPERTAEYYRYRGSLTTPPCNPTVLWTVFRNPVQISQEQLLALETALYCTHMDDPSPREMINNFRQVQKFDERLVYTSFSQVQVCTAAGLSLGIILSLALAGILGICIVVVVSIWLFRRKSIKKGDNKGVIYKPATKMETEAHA
Carbonic anhydrase 1, sequence (P00915 whole entry): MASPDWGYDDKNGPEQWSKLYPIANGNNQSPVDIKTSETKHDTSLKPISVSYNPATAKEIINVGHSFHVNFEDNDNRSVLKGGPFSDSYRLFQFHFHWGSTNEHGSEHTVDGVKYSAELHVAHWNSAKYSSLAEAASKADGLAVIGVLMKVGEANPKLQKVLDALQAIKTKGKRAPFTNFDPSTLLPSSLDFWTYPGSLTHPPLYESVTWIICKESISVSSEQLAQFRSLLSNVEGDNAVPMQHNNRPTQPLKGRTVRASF
Description for Carbonic anhydrase 12: Inhibition of recombinant human carbonic anhydrase 12 expressed in Escherichia coli L21-GOLD (DE3) incubated for 10 mins prior to testing by stopped-flow CO2 hydration assay
Description for Carbonic anhydrase 9: Inhibition of recombinant human carbonic anhydrase 9 expressed in Escherichia coli L21-GOLD (DE3) incubated for 10 mins prior to testing by stopped-flow CO2 hydration assay

For `O=C1NS(=O)(=O)c2ccccc21` [SACCHARIN], the inhibition constant (Ki) on Carbonic anhydrase 1 is over 20000 nM; on Carbonic anhydrase 9 it was 100 nM; at Carbonic anhydrase 12, 650 nM.
